From patent US7851474B2, “Dipiperazinyl ketones and related analogues” (Neurogen Corporation, priority 2005, dated 2010)

The compounds below were run against T1, chimeric human H3 receptor (Homo sapiens, UniProt Q9Y5N1, E19D) (assay: Chimeric human H3 receptor screening GTP binding assay (inhibition of histamine-stimulated GTP-gamma35S binding, Example 8)). Conditions: 1 h; assay described in Example 8; symbol + in column headed Ki of Table II; read-out: percent inhibition of agonist-induced GTP-gammaS binding to H3.
T1 construct: made in house; host or cells: Sf9 insect cells (baculovirus infection); P2 membrane preparation
Assay type: biochemical
Protocol: This Example illustrates a representative screening assay for evaluating inhibition of histamine-stimulated GTP-gamma^35S binding. Such GTP binding activity can be used to identify H3 antagonists and inverse agonists. A compound analyzed in this assay is referred to herein as a “test compound,” and the initial identification of antagonists and inverse agonists is performed using a test compound concentration of 4 μM.
Four independent baculoviral stocks (one directing the expression of the chimeric human H3 receptor and three directing the expression of each of the three subunits of a heterotrimeric G-protein) are used to infect a culture of Sf9 cells as described above. P2 membranes are prepared as described above, and are resuspended by Dounce homogenization (tight pestle) in GTP binding assay buffer (50 mM Tris pH 7.4, 120 mM NaCl, 5 mM MgCl2, 2 mM EGTA, 1 mg/ml BSA, 0.2 mg/ml bacitracin, 0.02 mg/ml aprotinin, 0.01 mg/ml saponin, 10 μM GDP) and added to assay tubes at a concentration of 35 μg protein/reaction tube. Non-radiolabeled test compounds are added to separate reactions at a concentration of 4 μM along with 1 μM histamine (agonist). Reactions are initiated by the addition of 125 pM GTP-gamma^35S with a final assay volume of 0.20 ml.
After a 60-min incubation at room temperature, reactions are terminated by vacuum filtration over GF/C filters (pre-soaked in 50 mM Tris pH 7.4, 120 mM NaCl plus 0.1% BSA) followed by washing with ice-cold buffer (50 mM Tris pH 7.4, 120 mM NaCl). The amount of receptor-bound (and thereby membrane-bound) GTP-gamma^35S is determined by measuring the bound radioactivity, preferably by liquid scintillation spectrometry of the washed filters. Non-specific binding is determined using 10 uM GTP-gammaS and typically represents less than 5 percent of total binding. After subtraction of non-specific binding, data is expressed as percent inhibition of 1 μM histamine signal.
Neutral antagonists are those test compounds that reduce the histamine-stimulated GTP binding activity towards, but not below, baseline levels. In contrast, in the absence of added histamine, inverse agonists reduce the GTP binding activity of the receptor-containing membranes below baseline. Any test compound that elevates GTP binding activity above baseline in the absence of added histamine in this assay is defined as having agonist activity.

T1 sequence (Q9Y5N1 with tags, fused parts or gaps E19D): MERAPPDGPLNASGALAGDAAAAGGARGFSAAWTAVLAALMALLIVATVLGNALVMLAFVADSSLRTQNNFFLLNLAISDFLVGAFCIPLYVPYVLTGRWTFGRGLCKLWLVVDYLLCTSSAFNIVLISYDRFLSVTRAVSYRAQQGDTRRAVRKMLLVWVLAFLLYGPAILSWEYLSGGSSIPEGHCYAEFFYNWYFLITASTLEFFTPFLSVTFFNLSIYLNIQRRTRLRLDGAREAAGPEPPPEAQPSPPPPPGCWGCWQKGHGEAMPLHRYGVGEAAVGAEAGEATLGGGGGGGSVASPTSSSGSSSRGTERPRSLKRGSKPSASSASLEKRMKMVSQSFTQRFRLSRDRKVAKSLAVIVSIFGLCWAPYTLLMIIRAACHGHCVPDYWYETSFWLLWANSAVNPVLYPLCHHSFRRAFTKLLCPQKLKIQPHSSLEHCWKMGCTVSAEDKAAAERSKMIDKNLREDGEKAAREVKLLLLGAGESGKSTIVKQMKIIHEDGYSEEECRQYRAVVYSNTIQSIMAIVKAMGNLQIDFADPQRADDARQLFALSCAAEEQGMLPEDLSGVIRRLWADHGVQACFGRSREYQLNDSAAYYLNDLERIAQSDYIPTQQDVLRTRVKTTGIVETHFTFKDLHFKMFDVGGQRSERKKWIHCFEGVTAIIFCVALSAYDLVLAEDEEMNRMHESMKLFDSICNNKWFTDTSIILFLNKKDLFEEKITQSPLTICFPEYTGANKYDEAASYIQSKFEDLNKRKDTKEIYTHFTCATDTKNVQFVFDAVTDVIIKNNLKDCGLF

inhibition at 4 µM	Compound
> 90%	O=C(CN1CCN(C(=O)c2cccnc2Sc2ccc(Cl)cc2)CC1)N1CCN(C2CCC2)CC1 [Compound 256, 1-({2-[(4-chlorophenyl)thio]pyridin-3-yl}carbonyl)-4-[2-(4-cyclobutylpiperazin-1-yl)-2-oxoethyl]piperazine]
> 90%	O=C(CN1CCN(C(=O)c2ccc3c(c2)OCO3)CC1)N1CCN(C2CCC2)CC1 [Compound 260, 1-(1,3-benzodioxol-5-ylcarbonyl)-4-[2-(4-cyclobutylpiperazin-1-yl)-2-oxoethyl]piperazine]
> 90%	O=C(CN1CCN(C(=O)c2cc3ccccc3s2)CC1)N1CCN(C2CCC2)CC1 [Compound 261, 1-(1-benzothien-2-ylcarbonyl)-4-[2-(4-cyclobutylpiperazin-1-yl)-2-oxoethyl]piperazine]
> 90%	O=C(CN1CCN(C(=O)c2ccccc2Cc2ccccc2)CC1)N1CCN(C2CCC2)CC1 [Compound 270, 1-(2-benzylbenzoyl)-4-[2-(4-cyclobutylpiperazin-1-yl)-2-oxoethyl]piperazine]
> 90%	COc1ccc(Br)c(C(=O)N2CCN(CC(=O)N3CCN(C4CCC4)CC3)CC2)c1 [Compound 271, 1-(2-bromo-5-methoxybenzoyl)-4-[2-(4-cyclobutylpiperazin-1-yl)-2-oxoethyl]piperazine]
> 90%	O=C(CN1CCN(C(=O)c2c(F)cccc2Cl)CC1)N1CCN(C2CCC2)CC1 [Compound 274, 1-(2-chloro-6-fluorobenzoyl)-4-[2-(4-cyclobutylpiperazin-1-yl)-2-oxoethyl]piperazine]
> 90%	COc1cc(C(=O)N2CCN(CC(=O)N3CCN(C4CCC4)CC3)CC2)cc(Cl)n1 [Compound 275, 1-(2-chloro-6-methoxyisonicotinoyl)-4-[2-(4-cyclobutylpiperazin-1-yl)-2-oxoethyl]piperazine]
> 90%	Cc1cc(C(=O)N2CCN(CC(=O)N3CCN(C4CCC4)CC3)CC2)cc(Cl)n1 [Compound 276, 1-(2-chloro-6-methylisonicotinoyl)-4-[2-(4-cyclobutylpiperazin-1-yl)-2-oxoethyl]piperazine]
> 90%	O=C(CN1CCN(C(=O)c2ccccc2Cl)CC1)N1CCN(C2CCC2)CC1 [Compound 277, 1-(2-chlorobenzoyl)-4-[2-(4-cyclobutylpiperazin-1-yl)-2-oxoethyl]piperazine]
> 90%	O=C(CN1CCN(C(=O)c2ccnc(Cl)c2)CC1)N1CCN(C2CCC2)CC1 [Compound 279, 1-(2-chloroisonicotinoyl)-4-[2-(4-cyclobutylpiperazin-1-yl)-2-oxoethyl]piperazine]
> 90%	COc1ccc(Br)c(OC)c1C(=O)N1CCN(CC(=O)N2CCN(C3CCC3)CC2)CC1 [Compound 290, 1-(3-bromo-2,6-dimethoxybenzoyl)-4-[2-(4-cyclobutylpiperazin-1-yl)-2-oxoethyl]piperazine]
> 90%	O=C(CN1CCN(C(=O)c2ccc(F)c(Br)c2)CC1)N1CCN(C2CCC2)CC1 [Compound 291, 1-(3-bromo-4-fluorobenzoyl)-4-[2-(4-cyclobutylpiperazin-1-yl)-2-oxoethyl]piperazine]
> 90%	Cc1ccc(C(=O)N2CCN(CC(=O)N3CCN(C4CCC4)CC3)CC2)cc1Br [Compound 292, 1-(3-bromo-4-methylbenzoyl)-4-[2-(4-cyclobutylpiperazin-1-yl)-2-oxoethyl]piperazine]
> 90%	COc1ccc(Cl)c(OC)c1C(=O)N1CCN(CC(=O)N2CCN(C3CCC3)CC2)CC1 [Compound 294, 1-(3-chloro-2,6-dimethoxybenzoyl)-4-[2-(4-cyclobutylpiperazin-1-yl)-2-oxoethyl]piperazine]
> 90%	O=C(CN1CCN(C(=O)c2ccc(F)c(Cl)c2)CC1)N1CCN(C2CCC2)CC1 [Compound 296, 1-(3-chloro-4-fluorobenzoyl)-4-[2-(4-cyclobutylpiperazin-1-yl)-2-oxoethyl]piperazine]
> 90%	Cc1ccc(C(=O)N2CCN(CC(=O)N3CCN(C4CCC4)CC3)CC2)cc1Cl [Compound 298, 1-(3-chloro-4-methylbenzoyl)-4-[2-(4-cyclobutylpiperazin-1-yl)-2-oxoethyl]piperazine]
> 90%	O=C(CN1CCN(C(=O)c2cccc(Cl)c2)CC1)N1CCN(C2CCC2)CC1 [Compound 299, 1-(3-chlorobenzoyl)-4-[2-(4-cyclobutylpiperazin-1-yl)-2-oxoethyl]piperazine]
> 90%	COc1cc(Cl)ccc1C(=O)N1CCN(CC(=O)N2CCN(C3CCC3)CC2)CC1 [Compound 342, 1-(4-chloro-2-methoxybenzoyl)-4-[2-(4-cyclobutylpiperazin-1-yl)-2-oxoethyl]piperazine]
> 90%	Cc1cc(C(=O)N2CCN(CC(=O)N3CCN(C4CCC4)CC3)CC2)ccc1Cl [Compound 348, 1-(4-chloro-3-methylbenzoyl)-4-[2-(4-cyclobutylpiperazin-1-yl)-2-oxoethyl]piperazine]
> 90%	O=C(CN1CCN(C(=O)c2ccc(Cl)cc2)CC1)N1CCN(C2CCC2)CC1 [Compound 354, 1-(4-chlorobenzoyl)-4-[2-(4-cyclobutylpiperazin-1-yl)-2-oxoethyl]piperazine]
> 90%	COc1ccc(Cl)cc1C(=O)N1CCN(CC(=O)N2CCN(C3CCC3)CC2)CC1 [Compound 364, 1-(5-chloro-2-methoxybenzoyl)-4-[2-(4-cyclobutylpiperazin-1-yl)-2-oxoethyl]piperazine]
> 90%	O=C(CN1CCN(C(=O)c2ccccc2-c2ccccc2)CC1)N1CCN(C2CCC2)CC1 [Compound 374, 1-(biphenyl-2-ylcarbonyl)-4-[2-(4-cyclobutylpiperazin-1-yl)-2-oxoethyl]piperazine]
> 90%	O=C(CN1CCN(C(=O)c2ccc(-c3ccccc3)cc2)CC1)N1CCN(C2CCC2)CC1 [Compound 376, 1-(biphenyl-4-ylcarbonyl)-4-[2-(4-cyclobutylpiperazin-1-yl)-2-oxoethyl]piperazine]
> 90%	Cc1cc(C(=O)N2CCN(CC(=O)N3CCN(C4CCC4)CC3)CC2)n(C(C)(C)C)n1 [Compound 377, 1-[(1-tert-butyl-3-methyl-1H-pyrazol-5-yl)carbonyl]-4-[2-(4-cyclobutylpiperazin-1-yl)-2-oxoethyl]piperazine]
> 90%	O=C(/C=C/c1ccc2c(c1)OCO2)N1CCN(CC(=O)N2CCN(C3CCC3)CC2)CC1 [Compound 385, 1-[(2E)-3-(1,3-benzodioxol-5-yl)prop-2-enoyl]-4-[2-(4-cyclobutylpiperazin-1-yl)-2-oxoethyl]piperazine]

Compound	inhibition at 4 µM
O=C(Cc1ccc2c(c1)OCO2)N1CCN(CC(=O)N2CCN(C3CCC3)CC2)CC1 [Compound 259, 1-(1,3-benzodioxol-5-ylacetyl)-4-[2-(4-cyclobutylpiperazin-1-yl)-2-oxoethyl]piperazine]	> 90%
CCCCOc1ccccc1C(=O)N1CCN(CC(=O)N2CCN(C3CCC3)CC2)CC1 [Compound 272, 1-(2-butoxybenzoyl)-4-[2-(4-cyclobutylpiperazin-1-yl)-2-oxoethyl]piperazine]	> 90%
CCCCOc1ccc(C(=O)N2CCN(CC(=O)N3CCN(C4CCC4)CC3)CC2)cc1 [Compound 340, 1-(4-butoxybenzoyl)-4-[2-(4-cyclobutylpiperazin-1-yl)-2-oxoethyl]piperazine]	> 90%
O=C(Cc1ccc(-c2ccccc2)cc1)N1CCN(CC(=O)N2CCN(C3CCC3)CC2)CC1 [Compound 375, 1-(biphenyl-4-ylacetyl)-4-[2-(4-cyclobutylpiperazin-1-yl)-2-oxoethyl]piperazine]	> 90%
O=C(Cc1ccc(F)cc1Cl)N1CCN(CC(=O)N2CCN(C3CCC3)CC2)CC1 [Compound 381, 1-[(2-chloro-4-fluorophenyl)acetyl]-4-[2-(4-cyclobutylpiperazin-1-yl)-2-oxoethyl]piperazine]	> 90%
O=C(COc1ccccc1Cl)N1CCN(CC(=O)N2CCN(C3CCC3)CC2)CC1 [Compound 383, 1-[(2-chlorophenoxy)acetyl]-4-[2-(4-cyclobutylpiperazin-1-yl)-2-oxoethyl]piperazine]	> 90%
O=C(Cc1ccccc1Cl)N1CCN(CC(=O)N2CCN(C3CCC3)CC2)CC1 [Compound 384, 1-[(2-chlorophenyl)acetyl]-4-[2-(4-cyclobutylpiperazin-1-yl)-2-oxoethyl]piperazine]	> 90%
